The values below come from US11180518B2, “Phenyl-heterocycle-phenyl derivatives for use in the treatment or prevention of melanoma” (MAX-PLANCK-GESELLSCHAFT ZUR FÖRDERUNG DER WISSENSCHAFTEN …, priority 2017, dated 2021).

Data set [1] concerns α-synuclein-expressing WM983-B human metastatic melanoma cells. In words: Test screening of DPP compounds in human metastatic melanoma cells (cell death read-out). The class given is cell-based. The conditions noted are these: WM983B, second 10 μM dose at 48 hr, serum-free culture medium, read at 48 h / 96 h. Here is the method: To determine the impact of the DPP compounds on high-level α-synuclein-expressing human melanoma cells, WM983-B melanoma cells were plated, in duplicate, in 12-well tissue culture plates in cell culture medium containing 10% fetal bovine serum. Twenty-four hours later, the cells were rinsed three-times with serum-free medium, followed by addition of serum-free medium containing each DPP compound at a dose of 10 μM. Following incubation of the DPP compound-treated cells at 37° C. for 48 hr, each DPP compound was added to the cells at a second 10 μM dose. Using light microscopy, changes in the cells' morphology>detachment of the cells from the cell culture dish/floating in the cell culture medium>cell death were recorded on a scale of 0, +, ++, +++, ++++ at the 24 hr, 48 hr, 72 hr and 96 hr time-point following addition of DPP compound.
The DPP compounds were added to α-synuclein-expressing WM983-B human metastatic melanoma cells.

The test system of data set [2] is SK-MEL-5 melanoma cells. In words: Autophagy: LC3 immunofluorescence. The class given is cell-based, human. The conditions noted are these: compared with WM983-B cells. Here is the method: (§1) We observed a clear effect of the anle compounds on the autophagy pathway of the melanoma cells. […] Following addition of anle138c, the effect was seen later with levels of 8% at 24 hr and 78% after 96 hr.
(§2) Autophagy. WM983-B and SK-MEL-5 cells that for 24 or 48 hr were treated with anle138 or had received DMSO only were fixed for 20 min with 3.7% PFA, permeabilized, blocked, and probed with an anti-LC3B [clone 2G6] antibody (nanoTools Antikörpertechnik GmbH & Co. KG, Teningen, Germany), followed by a donkey anti-mouse Alexa-488 secondary antibody and Draq5 DNA counterstain. Confocal image stacks were obtained with a 63×NA 1.2 objective on a Zeiss LSM 510 Meta confocal microscope.

The subject of data set [3] is WM983-B melanoma cells. The experiment in a line: Autophagy: LC3 immunofluorescence. The class given is cell-based, human. Here is the method: as §1, §2
Data set [4] concerns the target α-synuclein monomers (Homo sapiens, UniProt P37840). To be noted: cited from earlier work.
Data set [5] has as its system WM983-A, WM983-B, and SK-MEL-5 melanoma cell lines. In words: Apoptosis markers in treated melanoma cells. The format is cell-based, human. From the text:
Although the morphological changes in the WM983-A, WM983-B, and SK-MEL-5 melanoma cell lines following addition of anle138b occurred quite rapidly, they were not indicative of the cells undergoing apoptosis. […] Differential interference contrast (DIC) images of the morphology of the anle138b-treated WM983-B, SK-MEL-5, and WM1158 melanoma cells from the same panels are shown in FIG. 9.

Data set [6] in a line: Binding to FBS. The class given is in vitro ADME.
Data set [7] concerns WM1158 melanoma cells. The experiment in a line: Melanoma cell proliferation analysis. The class given is cell-based, human. The conditions noted are these: over 96 hr, replenishment at 48 hr. From the text:
(§3) To assess the possible impact of anle138b as well as anle138c on the different melanoma cell lines, WM983-A, WM983-B and SK-MEL-5, we treated them with increasing doses of either compound, dissolved in dimethyl sulfoxide (DMSO), and added to serum-free culture medium. […] We also observed that treatment with anle138b caused a more rapid morphological change than anle138c. To determine whether the effect of the two anle compounds was related to the amount of α-synuclein produced by the cells, we compared the proliferation of the (VGP) WM983-A high-level and the (RGP/VGP) WM1158 low-level α-synuclein-producing melanoma cells over a period of 96 hr, with replenishment of each anle compound at 48 hr (FIGS. 8A and B).
(§4) 10 or 30 mM stock solutions of anle138b or anle138c were made in DMSO. Since anle138b as well as anle138c bind strongly to FBS, melanoma cells, plated for 24 hr in tissue-culture medium containing 10% FBS, were rinsed three times with serum-free medium prior to addition of anle138b, anle138c, or an equivalent volume of DMSO only in serum-free medium. Forty-eight hours later, the cell culture medium was removed, followed by addition of an equivalent dose of anle138b or anle138c, or DMSO only in serum-free culture medium. […] Proliferation of melanoma cells that had received DMSO only, or were treated with anle138b was determined by counting the cells with a hemocytometer.

Data set [8] relates to high-level α-synuclein expressing cell lines WM983-B. In words: Initial screen of sixteen compounds from the DPP library. The format is cell-based, human.
Data set [9] deals with WM1158 melanoma cells. In words: Cell morphology (phase-contrast). The format is cell-based, human. The conditions noted are these: 10 μM, up to 96 hr, replenishment at 48 hr.
Excerpt: as §3, §4
(§5) Cell morphology. Phase-contrast or DIC images of the melanoma cells that had been treated for various times with anle138b or anle138c, or had received DMSO only were captured with a 10×NA 0.6 objective on a Zeiss Axiovert 100 microscope with a Hamamatsu Orca charge-coupled device (CCD) camera. At least four images, at random areas per culture dish, were recorded for each time point.

In data set [10] the test system is SK-MEL-5 melanoma cells. The experiment in a line: Cell morphology (phase-contrast). The class given is cell-based, human. The conditions noted are these: increasing doses, serum-free medium; time- and dose-dependent.
Excerpt: as §3, §4, §5

Data set [11] deals with WM983-B melanoma cells. The experiment in a line: Cell morphology (phase-contrast). The conditions noted are these: increasing doses, serum-free medium; time- and dose-dependent. The class given is cell-based, human.
Excerpt: as §3, §4, §5

Some results are limits rather than exact numbers.

As to `COc1ccc(-c2noc(-c3cccc(Cl)c3)n2)cc1`, the cytotoxicity at 10 µM in data set [1] was in the range of 20 to 50%. Same read-out and setting: as for `Cc1ccc(Br)cc1-c1nc(-c2cccc(OC(F)(F)F)c2)no1`, the figure is 50 to 90%; as for `CN1CCOc2cc(-c3cc(-c4cccc(Br)c4)[nH]n3)ccc21`, 100%. Still for that read-out and setting: as for `Oc1ccc(-c2cc(-c3cccc(F)c3)[nH]n2)cc1O`, the figure is 50 to 90%; as for `Clc1cc(Cl)cc(-c2nc(-c3ccc4c(c3)OCO4)no2)c1`, under 20%; as for `Cn1ccc2cc(-c3cc(-c4cccc(Br)c4)[nH]n3)ccc21`, 20 to 50%.

For the compound `CN(C)c1ccc(-c2cc(-c3cccc(Br)c3)no2)cc1`, in [1], the cytotoxicity at 10 µM was under 20%. As to `CN(C)c1ccc(-c2cc(-c3cccc(F)c3)on2)cc1`, the cytotoxicity at 10 µM in data set [1] was 50 to 90%.

`Brc1cccc(-c2c[nH]c(-c3ccc4c(c3)OCO4)n2)c1`: the cytotoxicity at 10 µM in data set [1] was 100%. Still for that read-out and setting: as for `Clc1cccc(-c2cc(-c3ccc4c(c3)OCCO4)n[nH]2)c1`, the figure is 100%; as for `CN(C)c1ccc(-c2cc(-c3cccc(Br)c3)[nH]n2)cc1` [drawing 79], 100%. The same measure, in the same setting: as for `FC1(F)Oc2ccc(-c3cc(-c4cccc(Br)c4)[nH]n3)cc2O1`, the figure is 20 to 50%. The same measure, in the same setting: as for `Brc1cccc(-c2cc(-c3ccc4ccccc4c3)n[nH]2)c1`, the figure is 20 to 50%; as for `Oc1ccc(-c2cc(-c3cccc(Br)c3)[nH]n2)cc1O` [drawing 77], 100%; as for `Brc1cccc(-c2cc(-c3ccc4ccoc4c3)n[nH]2)c1`, 50 to 90%. As for `Oc1cccc(-c2cc(-c3cccc(Cl)c3)[nH]n2)c1`, the cytotoxicity at 10 µM in [1] lay in the range of 50 to 90%. Turning to `Brc1cccc(-c2nc(-c3ccc4c(c3)OCCO4)co2)c1`, the cytotoxicity at 10 µM in data set [1] was 100%. Consider `Oc1ccc(-c2cc(-c3cccc(Br)c3)[nH]n2)cc1O` [anle138c], for which the “levels of punctuate LC3 loci” value in data set [2] is recorded as “even higher levels”. Besides, the “cells with punctuate upregulation of LC3” value in data set [3] (24 hr, cells still attached) amounted to 8%; in data set [3] (96 hr) it was 78%. Moreover, in [4], the “binding to α-synuclein monomers” value is listed as “Neither of these two compounds binds to α-synuclein monomers”. In data set [5], the “cleaved caspase 3 (apoptosis)” value is listed as “nor were they positive for cleaved caspase 3”. Besides, the “binding to FBS” value in data set [6] was “bind strongly”. In addition, in data set [7], the proliferation entry was “reduced proliferation only after 48 hr”. Also, in data set [8], the “effect on WM983-B cells in initial screen” value is “significantly affected”. Further, the morphology result in [9] is given as “did not show a significantly altered morphology”. The morphological changes result in data set [10] and in data set [11] was “major morphological changes” each time. Regarding `Brc1cccc(-c2nc(-c3ccc4c(c3)OCO4)no2)c1`, the cytotoxicity at 10 µM in data set [1] was under 20%.

With `Nc1ccc(-c2cc(-c3cccc(Cl)c3)[nH]n2)cc1`, the cytotoxicity at 10 µM in data set [1] lay within 20 to 50%.

For `COc1cccc(-c2c[nH]c(-c3cccc(Br)c3)n2)c1`, the cytotoxicity at 10 µM in data set [1] was found to be 100%. Same read-out and setting: the result for `Nc1cccc(-c2ncc(-c3ccc(Cl)c(Cl)c3)o2)c1` reads 100%; that for `COc1ccc(-c2cc(-c3cccc(F)c3)on2)cc1OC`, 100%.

Regarding `Cn1nc(-c2ccc3c(c2)OCO3)cc1-c1cccc(Br)c1`, in data set [1], the cytotoxicity at 10 µM lay in the range of 50 to 90%. On to `Brc1cccc(-c2cc(-c3ccc4c(c3)OCCCO4)n[nH]2)c1`, for which the cytotoxicity at 10 µM in data set [1] was determined as 100%.

`Brc1cccc(-c2cc(-c3ccc4nccnc4c3)n[nH]2)c1`: in data set [1], the cytotoxicity at 10 µM turned out to be 100%. Take `Fc1cccc(-c2cc(-c3ccc4c(c3)OCO4)n[nH]2)c1`: the cytotoxicity at 10 µM in data set [1] was under 20%. On to `CN(C)c1ccc(-c2cc(-c3cccc(Br)c3)[nH]n2)cc1` [anle253b, 5-(3-Bromophenyl)-3-(4-dimethylaminophenyl)-1H-pyrazole], for which the “effect on WM983-B cells in initial screen” value in data set [8] is “significantly affected”. Consider `FCCn1nc(-c2cccc(Br)c2)cc1-c1ccc2c(c1)OCO2`, for which the cytotoxicity at 10 µM in [1] is 100%.

Take `Oc1ccc(-c2cc(-c3cccc(F)c3)on2)cc1O`: the cytotoxicity at 10 µM in data set [1] is 100%.

Turning to `Clc1cccc(-c2cc(-c3ccc4c(c3)OCO4)n[nH]2)c1`, in [1], the cytotoxicity at 10 µM came to 100%.

In the case of `CC1(C)CCc2cc(-c3cc(-c4cccc(Br)c4)[nH]n3)ccc2O1`, the cytotoxicity at 10 µM in data set [1] is 100%. The same measure, in the same setting: as for `Oc1ccc(-c2noc(-c3cccc(F)c3)n2)cc1O`, the figure is 100%; as for `Brc1cccc(-c2cc(-c3ccc4c(c3)OCCO4)n[nH]2)c1`, 100%.
